Converted amounts (≈) assume the structure as drawn.
Legend:
[1] = system: E. coli; assay: MIC by broth microdilution (CLSI), E. coli; type: cell-based; details: Escherichia coli, broth microdilution, cation adjusted Mueller-Hinton Broth, 35° C., 18-24 h; read-out: E. coli MIC
Procedure: (§1) Minimal inhibitory concentrations (MIC) were determined by the broth microdilution method in accordance with the Clinical and Laboratory Standards Institute (CLSI) guidelines. In brief, organism suspensions were adjusted to a 0.5 McFarland standard to yield a final inoculum between 3×10^5 and 7×10^5 colony-forming units (CFU)/mL. Drug dilutions and inocula were made in sterile, cation adjusted Mueller-Hinton Broth (Beckton Dickinson). An inoculum volume of 100 μL was added to wells containing 100 μL of broth with 2-fold serial dilutions of drug. All inoculated microdilution trays were incubated in ambient air at 35° C. for 18-24 h. Following incubation, the lowest concentration of the drug that prevented visible growth (OD600 nm<0.05) was recorded as the MIC. Performance of the assay was monitored by the use of laboratory quality-control strains and levofloxacin, a compound with a defined MIC spectrum, in accordance with CLSI guidelines.

[2] = system: K. pneumoniae; assay: MIC by broth microdilution (CLSI), K. pneumoniae; type: cell-based; details: Klebsiella pneumoniae, broth microdilution, cation adjusted Mueller-Hinton Broth, 35° C., 18-24 h; read-out: K. pneumoniae MIC
Procedure: as §1

| SMILES | MIC [1] [µg/mL] | MIC [2] [µg/mL] |
| --- | --- | --- |
| Nc1ccc(C#Cc2ccc(CC(C(=O)NCC(F)F)c3nc[nH]c(=O)c3O)cc2)cn1 (centres unmarked) [Compound 28, 3-(4-((6-aminopyridin-3-yl)ethynyl)phenyl)-N-(2,2-difluoroethyl)-2-(5-hydroxy-6-oxo-1,6-dihydropyrimidin-4-yl)propanamide] | 8 to 32 (≈ 18.2 to 72.8 µM) | > 32 |
| O=c1[nH]cnc(CCc2ccc(C#Cc3ccc(CN4CCOCC4)nc3)cc2)c1O [Compound 17, 5-hydroxy-6-(4-((6-(morpholinomethyl)pyridin-3-yl)ethynyl)phenethyl) pyrimidin-4(3H)-one] | < 1 | 1 to 8 (≈ 2.4 to 19.2 µM) |
| O=c1[nH]cnc(C(CNCCF)Cc2ccc(C#Cc3ccc(CN4CCOCC4)cn3)cc2)c1O (centres unmarked) [Compound 30, 6-(1-((2-fluoroethyl)amino)-3-(4-((5-(morpholinomethyl)pyridin-2-yl)ethynyl)phenyl)propan-2-yl)-5-hydroxypyrimidin-4(3H)-one] | > 32 | > 32 |
| O=c1[nH]cnc(CCc2ccc(C#Cc3ccc(CNC4CCOC4)cc3)cn2)c1O (centres unmarked) [Compound 20, 5-hydroxy-6-(2-(5-((4-(((tetrahydrofuran-3-yl)amino)methyl)phenyl)ethynyl)pyridin-2-yl)ethyl)pyrimidin-4(3H)-one] | < 1 | 8 to 32 (≈ 19.2 to 76.8 µM) |
| C=CCNCC(Cc1ccc(C#CC#Cc2ccc(C(=O)O)cc2)cc1)c1nc[nH]c(=O)c1O (centres unmarked) [Compound 35, 4-((4-(3-(allylamino)-2-(5 hydroxy-6-oxo-1,6-dihydropyrimidin-4-yl)propyl)phenyl)buta-1,3-diyn-1-yl)benzoic acid] | 1 to 8 (≈ 2.21 to 17.6 µM) | > 32 |
| O=c1[nH]cnc(C(CNCCF)Cc2ccc(C#CC#CC3CC3)cc2)c1O (centres unmarked) [Compound 68, 6-(1-(4-(cyclopropylbuta-1,3-diyn-1-yl)phenyl)-3-((2-fluoroethyl)amino)propan-2-yl)-5-hydroxypyrimidin-4(3H)-one] | > 32 | > 32 |
| C=CCNCC(Cc1ccc(C#CC#Cc2cnc(C)nc2)cc1)c1nc[nH]c(=O)c1O (centres unmarked) [Compound 37, 6-(1-(allylamino)-3-(4-((2-methylpyrimidin-5-yl)buta-1,3-diyn-1-yl)phenyl)propan-2-yl)-5-hydroxypyrimidin-4(3H)-one] | 8 to 32 (≈ 18.8 to 75.2 µM) | > 32 |
| C=C(Cc1ccc(C#CC#Cc2ccc(C(=O)N3CCN(C)CC3)cc2)cc1)c1nc[nH]c(=O)c1O [Compound 33, 5-hydroxy-6-(3-(4-((4-(4-methylpiperazine-1-carbonyl)phenyl)buta-1,3-diyn-1-yl)phenyl)prop-1-en-2-yl)pyrimidin-4(3H)-one] | 1 to 8 (≈ 2.09 to 16.7 µM) | 1 to 8 (≈ 2.09 to 16.7 µM) |
| O=C(NCC(F)F)C(Cc1ccc(C#Cc2cnc(C(F)(F)F)nc2)cc1)c1nc[nH]c(=O)c1O (centres unmarked) [Compound 27, N-(2,2-difluoroethyl)-2-(5-hydroxy-6-oxo-1,6-dihydropyrimidin-4-yl)-3-(4-((2-(trifluoromethyl)pyrimidin-5-yl)ethynyl)phenyl) propanamide] | > 32 | > 32 |
| O=c1[nH]cnc(CCc2ccc(C#Cc3ccc(CN4CCOCC4)cn3)cc2)c1O [Compound 16, 5-hydroxy-6-(4-((5-(morpholinomethyl)pyridin-2-yl)ethynyl)phenethyl) pyrimidin-4(3H)-one] | < 1 | 1 to 8 (≈ 2.4 to 19.2 µM) |

Second part, the compound after the results:

| MIC [1] [µg/mL] | MIC [2] [µg/mL] | SMILES |
| --- | --- | --- |
| 8 to 32 (≈ 17.2 to 69 µM) | 8 to 32 (≈ 17.2 to 69 µM) | O=c1[nH]cnc(C(CCl)Cc2ccc(C#Cc3ccc(CN4CCOCC4)cc3)cc2)c1O (centres unmarked) [Compound 113, 6-(1-chloro-3-(4-((4-(morpholinomethyl)phenyl)ethynyl)phenyl)propan-2-yl)-5-hydroxypyrimidin-4(3H)-one] |
| 8 to 32 (≈ 16.9 to 67.7 µM) | > 32 | C/C(=N\O)C(Cc1ccc(C#Cc2ccc(CN3CCOCC3)cc2)cc1)c1ncnc(O)c1O (centres unmarked) [Compound 111, (E)-3-(5,6-dihydroxypyrimidin-4-yl)-4-(4-((4-(morpholinomethyl)phenyl)ethynyl)phenyl)butan-2-one oxime] |
| 8 to 32 (≈ 18.8 to 75.4 µM) | > 32 | C=CCNCC(Cc1ccc(C#CC#Cc2ccccc2N)cc1)c1nc[nH]c(=O)c1O (centres unmarked) [Compound 36, 6-(1-(allylamino)-3-(4-((2-aminophenyl)buta-1,3-diyn-1-yl)phenyl)propan-2-yl)-5-hydroxypyrimidin-4(3H)-one] |
| > 32 | > 32 | Nc1ncc(C#Cc2ccc(CC(C(=O)NCC(F)F)c3nc[nH]c(=O)c3O)cc2)cn1 (centres unmarked) [Compound 24, 3-(4-((2-aminopyrimidin-5-yl)ethynyl)phenyl)-N-(2,2-difluoroethyl)-2-(5-hydroxy-6-oxo-1,6-dihydropyrimidin-4-yl)propanamide] |
| > 32 | > 32 | O=c1[nH]cnc(C2(Cn3ccc(C#Cc4ccc(CN5CCOCC5)cc4)cc3=O)CC2)c1O [Compound 43, 5-hydroxy-6-(1-((4-((4-(morpholinomethyl)phenyl)ethynyl)-2-oxopyridin-1(2H)-yl)methyl)cyclopropyl) pyrimidin-4(3H)-one] |
| > 32 | > 32 | N#Cc1ccc(-c2ccc(CC(C(=O)NCC(F)F)c3nc[nH]c(=O)c3O)cc2)cc1 (centres unmarked) [Compound 39, 3-(4′-cyano-[1,1′-biphenyl]-4-yl)-N-(2,2-difluoroethyl)-2-(5-hydroxy-6-oxo-1,6-dihydropyrimidin-4-yl)propanamide] |
| > 32 | > 32 | O=C(NCC(F)F)C(Cc1ccc(C#Cc2ccc(C(F)(F)F)nc2)cc1)c1nc[nH]c(=O)c1O (centres unmarked) [Compound 26, N-(2,2-difluoroethyl)-2-(5-hydroxy-6-oxo-1,6-dihydropyrimidin-4-yl)-3-(4-((6-(trifluoromethyl)pyridin-3-yl)ethynyl)phenyl) propanamide] |
| < 1 | 1 to 8 (≈ 2.4 to 19.2 µM) | O=c1[nH]cnc(CCc2ccc(C#Cc3ccc(CN4CCOCC4)cc3)cn2)c1O [Compound 19, 5-hydroxy-6-(2-(5-((4-(morpholinomethyl)phenyl)ethynyl)pyridin-2-yl)ethyl)pyrimidin-4(3H)-one] |
| 8 to 32 (≈ 18.1 to 72.5 µM) | > 32 | O=c1[nH]cnc(C2(Cc3ccc(C#Cc4ccc(CN5CCOCC5)cc4)cc3)CC2)c1O [Compound 135, 5-hydroxy-6-(1-(4-((4-(morpholinomethyl)phenyl)ethynyl)benzyl)cyclopropyl) pyrimidin-4(3H)-one] |
| 8 to 32 (≈ 18.1 to 72.5 µM) | > 32 | O=c1[nH]cnc(Cn2ccc3cc(C#Cc4ccc(CN5CCOCC5)cc4)cnc32)c1O [Compound 80, 5-hydroxy-6-((5-((4-(morpholinomethyl)phenyl)ethynyl)-1H-pyrrolo[2,3-b]pyridin-1-yl)methyl)pyrimidin-4(3H)-one] |
| 1 to 8 (≈ 2.01 to 16.1 µM) | 8 to 32 (≈ 16.1 to 64.4 µM) | C=CCNCC(Cc1ccc(C#CC#Cc2ccc(C(=O)NCCO)cc2)cc1)c1nc[nH]c(=O)c1O (centres unmarked) [Compound 34, 4-((4-(3-(allylamino)-2-(5-hydroxy-6-oxo-1,6-dihydropyrimidin-4-yl)propyl)phenyl)buta-1,3-diyn-1-yl)-N-(2-hydroxyethyl)benzamide] |
| 1 to 8 (≈ 2.26 to 18.1 µM) | 8 to 32 (≈ 18.1 to 72.5 µM) | O=c1[nH]cnc(C2(Cc3ccc(C#Cc4ccc(CNC5CCOC5)cc4)cc3)CC2)c1O (centres unmarked) [Compound 136, 5-hydroxy-6-(1-(4-((4-(((tetrahydrofuran-3-yl)amino)methyl)phenyl)ethynyl)benzyl)cyclopropyl)pyrimidin-4(3H)-one] |
